The values that follow come from ChEMBL document CHEMBL2010719, “Tyrosine modified analogues of the α4β7 integrin inhibitor biotin-R₈ERY prepared via Click Chemistry: synthesis and biological evaluation” (Bioorg Med Chem, 2012).

Holding throughout (format): cell-based
The target of assay [1] is T1, Integrin alpha-4/beta-7 (Mus musculus) (UniProt Q00651+P26011). As to the kind of experiment: Inhibition of integrin alpha4 beta7 receptor in mouse TK1 cells assessed as inhibition of Mn2+-activated cell adhesion to mouse MAdCAM-1-Fc at 50 uM after 1 hr by methylene blue staining analysis relative to biotin-r9YDRREY.
Assay [2] concerns the target T1, Integrin alpha-4/beta-7 (Mus musculus). The assay can be described thus: Inhibition of integrin alpha4 beta7 receptor in mouse TK1 cells assessed as inhibition of Mn2+-activated cell adhesion to mouse MAdCAM-1-Fc at 100 uM after 1 hr using methylene blue staining relative to biotin-r9YDRREY.
For assay [3], the target named is T2, Integrin alpha-4/beta-7 (Mus musculus, UniProt P26011+Q00651).
T2 sequence (Q00651 whole entry): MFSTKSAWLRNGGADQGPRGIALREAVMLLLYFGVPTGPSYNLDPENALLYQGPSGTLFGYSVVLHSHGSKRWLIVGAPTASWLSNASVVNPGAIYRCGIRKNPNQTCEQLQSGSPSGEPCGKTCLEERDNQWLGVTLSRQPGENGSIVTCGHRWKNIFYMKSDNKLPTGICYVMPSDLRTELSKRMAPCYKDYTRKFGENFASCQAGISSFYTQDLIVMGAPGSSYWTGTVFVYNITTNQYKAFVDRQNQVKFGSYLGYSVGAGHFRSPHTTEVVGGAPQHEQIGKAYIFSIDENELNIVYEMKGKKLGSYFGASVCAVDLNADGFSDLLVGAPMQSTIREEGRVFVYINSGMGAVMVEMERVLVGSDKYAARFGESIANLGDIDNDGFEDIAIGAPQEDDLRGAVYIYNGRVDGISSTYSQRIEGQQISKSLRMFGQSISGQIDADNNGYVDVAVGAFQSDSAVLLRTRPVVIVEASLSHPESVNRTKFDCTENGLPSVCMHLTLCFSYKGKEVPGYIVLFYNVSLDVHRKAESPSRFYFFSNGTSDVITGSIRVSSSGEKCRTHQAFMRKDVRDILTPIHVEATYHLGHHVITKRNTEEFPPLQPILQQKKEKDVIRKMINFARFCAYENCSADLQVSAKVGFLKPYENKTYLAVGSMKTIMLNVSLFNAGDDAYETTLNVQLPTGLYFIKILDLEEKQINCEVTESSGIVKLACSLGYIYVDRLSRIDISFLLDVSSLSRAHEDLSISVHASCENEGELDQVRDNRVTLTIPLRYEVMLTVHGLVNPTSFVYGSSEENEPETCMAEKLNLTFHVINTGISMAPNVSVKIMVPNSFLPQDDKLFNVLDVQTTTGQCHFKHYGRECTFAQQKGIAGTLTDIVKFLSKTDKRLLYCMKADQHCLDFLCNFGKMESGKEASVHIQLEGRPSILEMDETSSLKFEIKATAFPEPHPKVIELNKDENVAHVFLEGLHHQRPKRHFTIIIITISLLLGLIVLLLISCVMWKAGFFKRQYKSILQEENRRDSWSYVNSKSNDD
T2 sequence (P26011 whole entry): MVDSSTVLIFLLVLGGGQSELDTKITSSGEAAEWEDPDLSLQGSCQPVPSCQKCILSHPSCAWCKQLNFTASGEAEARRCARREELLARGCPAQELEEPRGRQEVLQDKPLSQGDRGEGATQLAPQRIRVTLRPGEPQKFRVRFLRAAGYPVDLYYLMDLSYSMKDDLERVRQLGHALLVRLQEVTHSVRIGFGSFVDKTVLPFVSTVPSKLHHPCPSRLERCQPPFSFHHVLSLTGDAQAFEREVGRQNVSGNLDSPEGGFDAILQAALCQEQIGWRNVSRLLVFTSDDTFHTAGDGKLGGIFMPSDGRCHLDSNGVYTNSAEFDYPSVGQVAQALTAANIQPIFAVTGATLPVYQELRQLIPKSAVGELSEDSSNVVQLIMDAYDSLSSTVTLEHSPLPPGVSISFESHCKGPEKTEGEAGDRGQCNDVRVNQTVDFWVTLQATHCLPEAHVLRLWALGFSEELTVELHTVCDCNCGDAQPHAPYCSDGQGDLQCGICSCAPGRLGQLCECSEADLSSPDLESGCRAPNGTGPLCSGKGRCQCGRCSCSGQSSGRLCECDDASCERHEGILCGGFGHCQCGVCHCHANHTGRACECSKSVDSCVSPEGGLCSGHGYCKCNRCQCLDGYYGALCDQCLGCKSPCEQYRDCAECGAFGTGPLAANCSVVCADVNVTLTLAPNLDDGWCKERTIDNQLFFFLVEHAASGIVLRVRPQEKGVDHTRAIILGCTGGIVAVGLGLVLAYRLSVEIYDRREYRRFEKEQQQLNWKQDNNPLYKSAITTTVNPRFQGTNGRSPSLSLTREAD
The assay can be described thus: Inhibition of integrin alpha4 beta7 receptor in mouse TK1 cells assessed as inhibition of Mn2+-activated cell adhesion to mouse MAdCAM-1-Fc after 1 hr using methylene blue staining.

SMILES strings stand for the structures. Residues, ends and D or L forms follow the SMILES beside them. *: point of attachment. X6 = CC(=O)OC[C@@H]1O[C@H](n2cc(C*)nn2)[C@@H](OC(C)=O)[C@H](OC(C)=O)[C@@H]1OC(C)=O; X3 = CC(=O)N[C@H]1[C@H](OC(C)=O)[C@H](OC(C)=O)[C@H](COC(C)=O)O[C@@H]1n1cc(C*)nn1; X1 = CC(=O)OC[C@@H]1OC(OC(C)=O)[C@@H](n2cc(C*)nn2)[C@H](OC(C)=O)[C@@H]1OC(C)=O; X9 = CC(=O)N[C@@H]1[C@H](OCCCn2cc(C*)nn2)O[C@@H](CO)[C@@H](O)[C@H]1O; X4 = CC(=O)N[C@H]1[C@H](O)[C@H](O)[C@H](CO)O[C@@H]1n1cc(C*)nn1; X5 = O=C(N[C@@H](Cn1cc(C*)nn1)C(=O)O)OCC1c2ccccc2-c2ccccc21; X2 = OC[C@@H]1O[C@H](n2cc(C*)nn2)[C@@H](O)[C@H](O)[C@@H]1O; Biotin = O=C1N[C@H]2[C@H](CS[C@H]2CCCCC(=O)*)N1; X8 = O=P(O)(O)CCn1cc(C*)nn1; X7 = O=C(O)Cn1cc(C*)nn1; Propargyl = C#CC*

A word on the inhibition: it is the drop in the measured response relative to a control, in per cent. The IC50 is the concentration needed to halve the response being measured. In the case of `CC(=O)OC[C@@H]1OC(OC(C)=O)[C@@H](n2cc(COc3ccc(C[C@H](NC(=O)[C@H](CCCNC(=N)N)NC(=O)[C@H](CCC(=O)O)NC(=O)[C@H](CCCNC(=N)N)NC(=O)[C@H](CCCNC(=N)N)NC(=O)[C@H](CCCNC(=N)N)NC(=O)[C@H](CCCNC(=N)N)NC(=O)[C@H](CCCNC(=N)N)NC(=O)[C@H](CCCNC(=N)N)NC(=O)[C@H](CCCNC(=N)N)NC(=O)[C@H](CCCNC(=N)N)NC(=O)CCCC[C@@H]4SC[C@@H]5NC(=O)N[C@@H]54)C(=O)O)cc3)nn2)[C@H](OC(C)=O)[C@@H]1OC(C)=O` (some centres not stated) (Biotin-RRRRRRRRERY(X1)-OH), the inhibition in assay [1] stood at 104%; in assay [2], 105%. Also, the IC50 in assay [3] stood at 50 µM.
With `N=C(N)NCCC[C@H](NC(=O)CCCC[C@@H]1SC[C@@H]2NC(=O)N[C@@H]21)C(=O)N[C@@H](CCCNC(=N)N)C(=O)N[C@@H](CCCNC(=N)N)C(=O)N[C@@H](CCCNC(=N)N)C(=O)N[C@@H](CCCNC(=N)N)C(=O)N[C@@H](CCCNC(=N)N)C(=O)N[C@@H](CCCNC(=N)N)C(=O)N[C@@H](CCCNC(=N)N)C(=O)N[C@@H](CCC(=O)O)C(=O)N[C@@H](CCCNC(=N)N)C(=O)N[C@@H](Cc1ccc(OCc2cn(CC(=O)O)nn2)cc1)C(=O)O` (Biotin-RRRRRRRRERY(X7)-OH), the inhibition came to 56.1% in assay [1] and 34.9% in assay [2].
For `CC(=O)N[C@H]1[C@H](OC(C)=O)[C@H](OC(C)=O)[C@H](COC(C)=O)O[C@@H]1n1cc(COc2ccc(C[C@H](NC(=O)[C@H](CCCNC(=N)N)NC(=O)[C@H](CCC(=O)O)NC(=O)[C@H](CCCNC(=N)N)NC(=O)[C@H](CCCNC(=N)N)NC(=O)[C@H](CCCNC(=N)N)NC(=O)[C@H](CCCNC(=N)N)NC(=O)[C@H](CCCNC(=N)N)NC(=O)[C@H](CCCNC(=N)N)NC(=O)[C@H](CCCNC(=N)N)NC(=O)[C@H](CCCNC(=N)N)NC(=O)CCCC[C@@H]3SC[C@@H]4NC(=O)N[C@@H]43)C(=O)O)cc2)nn1` (Biotin-RRRRRRRRERY(X3)-OH), the inhibition in assay [1] is 40%; in assay [2], 46.5%.
`N=C(N)NCCC[C@H](NC(=O)CCCC[C@@H]1SC[C@@H]2NC(=O)N[C@@H]21)C(=O)N[C@@H](CCCNC(=N)N)C(=O)N[C@@H](CCCNC(=N)N)C(=O)N[C@@H](CCCNC(=N)N)C(=O)N[C@@H](CCCNC(=N)N)C(=O)N[C@@H](CCCNC(=N)N)C(=O)N[C@@H](CCCNC(=N)N)C(=O)N[C@@H](CCCNC(=N)N)C(=O)N[C@@H](CCC(=O)O)C(=O)N[C@@H](CCCNC(=N)N)C(=O)N[C@@H](Cc1ccc(OCc2cn([C@H]3O[C@@H](CO)[C@@H](O)[C@@H](O)[C@@H]3O)nn2)cc1)C(=O)O` (Biotin-RRRRRRRRERY(X2)-OH): the inhibition in assay [1] amounted to 60.2%; in assay [2], 62.7%.
Take `CC(=O)N[C@@H]1[C@H](OCCCn2cc(COc3ccc(C[C@H](NC(=O)[C@H](CCCNC(=N)N)NC(=O)[C@H](CCC(=O)O)NC(=O)[C@H](CCCNC(=N)N)NC(=O)[C@H](CCCNC(=N)N)NC(=O)[C@H](CCCNC(=N)N)NC(=O)[C@H](CCCNC(=N)N)NC(=O)[C@H](CCCNC(=N)N)NC(=O)[C@H](CCCNC(=N)N)NC(=O)[C@H](CCCNC(=N)N)NC(=O)[C@H](CCCNC(=N)N)NC(=O)CCCC[C@@H]4SC[C@@H]5NC(=O)N[C@@H]54)C(=O)O)cc3)nn2)O[C@@H](CO)[C@@H](O)[C@H]1O` (Biotin-RRRRRRRRERY(X9)-OH): the results for the inhibition in assay [1] and in assay [2] were 41.5% and 42.4%, respectively.
For the molecule `C#CCOc1ccc(C[C@H](NC(=O)[C@H](CCCNC(=N)N)NC(=O)[C@H](CCC(=O)O)NC(=O)[C@H](CCCNC(=N)N)NC(=O)[C@H](CCCNC(=N)N)NC(=O)[C@H](CCCNC(=N)N)NC(=O)[C@H](CCCNC(=N)N)NC(=O)[C@H](CCCNC(=N)N)NC(=O)[C@H](CCCNC(=N)N)NC(=O)[C@H](CCCNC(=N)N)NC(=O)[C@H](CCCNC(=N)N)NC(=O)CCCC[C@@H]2SC[C@@H]3NC(=O)N[C@@H]32)C(=O)O)cc1` (Biotin-RRRRRRRRERY(Propargyl)-OH), the inhibition in assay [1] and in assay [2] was 39.8% throughout.
As to `CC(=O)OC[C@@H]1O[C@H](n2cc(COc3ccc(C[C@H](NC(=O)[C@H](CCCNC(=N)N)NC(=O)[C@H](CCC(=O)O)NC(=O)[C@H](CCCNC(=N)N)NC(=O)[C@H](CCCNC(=N)N)NC(=O)[C@H](CCCNC(=N)N)NC(=O)[C@H](CCCNC(=N)N)NC(=O)[C@H](CCCNC(=N)N)NC(=O)[C@H](CCCNC(=N)N)NC(=O)[C@H](CCCNC(=N)N)NC(=O)[C@H](CCCNC(=N)N)NC(=O)CCCC[C@@H]4SC[C@@H]5NC(=O)N[C@@H]54)C(=O)O)cc3)nn2)[C@@H](OC(C)=O)[C@H](OC(C)=O)[C@@H]1OC(C)=O` (Biotin-RRRRRRRRERY(X6)-OH), the inhibition worked out at 47.4% in assay [1] and 52.5% in assay [2].
For the molecule `N=C(N)NCCC[C@H](NC(=O)CCCC[C@@H]1SC[C@@H]2NC(=O)N[C@@H]21)C(=O)N[C@@H](CCCNC(=N)N)C(=O)N[C@@H](CCCNC(=N)N)C(=O)N[C@@H](CCCNC(=N)N)C(=O)N[C@@H](CCCNC(=N)N)C(=O)N[C@@H](CCCNC(=N)N)C(=O)N[C@@H](CCCNC(=N)N)C(=O)N[C@@H](CCCNC(=N)N)C(=O)N[C@@H](CCC(=O)O)C(=O)N[C@@H](CCCNC(=N)N)C(=O)N[C@@H](Cc1ccc(OCc2cn(C[C@H](NC(=O)OCC3c4ccccc4-c4ccccc43)C(=O)O)nn2)cc1)C(=O)O` (Biotin-RRRRRRRRERY(X5)-OH), the inhibition in assay [1] came to 114%; in assay [2], 111%. In assay [3], the IC50 is less than 10 µM.
With `N=C(N)NCCC[C@H](NC(=O)CCCC[C@@H]1SC[C@@H]2NC(=O)N[C@@H]21)C(=O)N[C@@H](CCCNC(=N)N)C(=O)N[C@@H](CCCNC(=N)N)C(=O)N[C@@H](CCCNC(=N)N)C(=O)N[C@@H](CCCNC(=N)N)C(=O)N[C@@H](CCCNC(=N)N)C(=O)N[C@@H](CCCNC(=N)N)C(=O)N[C@@H](CCCNC(=N)N)C(=O)N[C@@H](CCC(=O)O)C(=O)N[C@@H](CCCNC(=N)N)C(=O)N[C@@H](Cc1ccc(OCc2cn(CCP(=O)(O)O)nn2)cc1)C(=O)O` (Biotin-RRRRRRRRERY(X8)-OH), the inhibition in assay [1] stood at 60.3%; in assay [2], 65.4%.
Regarding `CC(=O)N[C@H]1[C@H](O)[C@H](O)[C@H](CO)O[C@@H]1n1cc(COc2ccc(C[C@H](NC(=O)[C@H](CCCNC(=N)N)NC(=O)[C@H](CCC(=O)O)NC(=O)[C@H](CCCNC(=N)N)NC(=O)[C@H](CCCNC(=N)N)NC(=O)[C@H](CCCNC(=N)N)NC(=O)[C@H](CCCNC(=N)N)NC(=O)[C@H](CCCNC(=N)N)NC(=O)[C@H](CCCNC(=N)N)NC(=O)[C@H](CCCNC(=N)N)NC(=O)[C@H](CCCNC(=N)N)NC(=O)CCCC[C@@H]3SC[C@@H]4NC(=O)N[C@@H]43)C(=O)O)cc2)nn1` (Biotin-RRRRRRRRERY(X4)-OH), the inhibition was found to be 28% in assay [1] and 39.6% in assay [2].
